Data taken from ChEMBL document CHEMBL4219148, “Discovery of a highly potent orally bioavailable imidazo-[1, 2-a]pyrazine Aurora inhibitor” (Bioorg Med Chem Lett, 2018).

How the values were obtained:
[1] = target: T1, Aurora kinase B (Homo sapiens, UniProt Q96GD4); experiment: Inhibition of Aurora B (unknown origin) using Tamra-PKAtide as substrate by fluorescence polarization assay
[2] = target: T1, Aurora kinase B; experiment: Inhibition of Aurora B in human HCT116 cells assessed as reduction in phosphorylation of Histone H3 at Ser10 residue incubated for 1 hr by Hoechst 33342 dye-based immunofluorescence microscopic method; type: cell-based
[3] = target: T2, Aurora kinase A (Homo sapiens, UniProt O14965); experiment: Inhibition of Aurora A (unknown origin) using Tamra-PKAtide as substrate by fluorescence polarization assay
T2 sequence (O14965 whole entry): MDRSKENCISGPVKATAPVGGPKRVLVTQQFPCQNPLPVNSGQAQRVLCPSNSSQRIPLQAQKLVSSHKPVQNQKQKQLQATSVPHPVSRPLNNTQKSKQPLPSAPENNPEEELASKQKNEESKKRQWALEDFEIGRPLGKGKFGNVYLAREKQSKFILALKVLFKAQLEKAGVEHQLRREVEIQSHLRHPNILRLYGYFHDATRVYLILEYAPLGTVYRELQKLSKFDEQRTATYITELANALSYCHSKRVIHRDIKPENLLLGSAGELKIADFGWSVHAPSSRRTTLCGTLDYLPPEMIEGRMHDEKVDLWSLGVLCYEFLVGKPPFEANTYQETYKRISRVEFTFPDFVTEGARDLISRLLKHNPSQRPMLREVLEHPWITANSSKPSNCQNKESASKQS

[4] = AUC (0 to 6 hrs) in rat at 10 mg/kg, po; type: ADME, organism-based; design: time < 6 hr, dose 10 mg/kg, route oral; settings: in vivo
[5] = Apparent permeability from apical to basolateral side in human intestinal Caco2 cells; type: ADME, cell-based; settings: Caco-2
[6] = AUC (0 to 24 hrs) in rat at 30 mg/kg, po; type: ADME, organism-based; design: time < 24 hr, dose 30 mg/kg, route oral; settings: in vivo

T1 sequence (Q96GD4 whole entry): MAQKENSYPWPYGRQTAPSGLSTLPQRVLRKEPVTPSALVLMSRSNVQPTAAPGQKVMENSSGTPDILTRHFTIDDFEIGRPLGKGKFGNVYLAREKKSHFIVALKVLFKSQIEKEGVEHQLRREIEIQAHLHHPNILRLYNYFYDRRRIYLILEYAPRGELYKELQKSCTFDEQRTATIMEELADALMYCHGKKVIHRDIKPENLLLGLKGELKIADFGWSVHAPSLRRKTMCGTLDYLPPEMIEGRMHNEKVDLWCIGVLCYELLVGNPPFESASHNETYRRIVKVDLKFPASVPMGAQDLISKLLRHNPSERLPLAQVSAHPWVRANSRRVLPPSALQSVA

Structure (SMILES)	IC50 [1]	EC50 [2]	IC50 [3]	AUC(0-t) at 6 h [4]	Papp A→B [5]	AUC(0-t) at 24 h [6]
Cc1cn2c(-c3cn[nH]c3)cnc2c(Nc2cc(Cc3cccnc3)ns2)n1	< 13 nM	> 1000 nM	< 4 nM			
Cc1cn2c(-c3cn[nH]c3)cnc2c(Nc2cc(Cc3cccc(C(=O)N4CCCCC4)n3)ns2)n1	< 13 nM	245 nM	< 4 nM	0.1 µM·h		
Cc1cn2c(-c3cn[nH]c3)cnc2c(Nc2cc(Cc3ccncc3)ns2)n1	< 13 nM	> 1000 nM	< 4 nM			
Cc1cn2c(-c3cn[nH]c3)cnc2c(Nc2cc(Cc3nccs3)ns2)n1	< 13 nM	170 nM	< 4 nM	3.9 µM·h		
Cc1cn2c(-c3cn[nH]c3)cnc2c(Nc2cc(Cc3cccc(CN4CCCCC4)n3)ns2)n1	< 13 nM	289 nM	< 4 nM			
Cc1cn2c(-c3cn[nH]c3)cnc2c(Nc2cc(Cn3cccc(C)c3=O)ns2)n1	< 13 nM	487 nM	< 4 nM			
Cc1cn2c(-c3cn[nH]c3)cnc2c(Nc2cc(Cn3ccnc3)ns2)n1	< 13 nM	370 nM	< 4 nM			
Cc1cn2c(-c3cn[nH]c3)cnc2c(Nc2cc(Cn3cccn3)ns2)n1	< 13 nM	184 nM	< 4 nM			
Cc1cn2c(-c3cn[nH]c3)cnc2c(Nc2cc(Cn3cccc3)ns2)n1	< 13 nM	530 nM	< 4 nM			
Cc1cn2c(-c3cn[nH]c3)cnc2c(Nc2cc(Cc3ncccn3)ns2)n1	< 13 nM	203 nM	< 4 nM	1.8 µM·h		
Cc1cn2c(-c3cn[nH]c3)cnc2c(Nc2cc(C(NC(C)(C)C)c3ccccn3)ns2)n1 (racemic)	< 13 nM	< 16 nM	< 4 nM	1.6 µM·h		
Cc1cn2c(-c3cn[nH]c3)cnc2c(Nc2cc(C(c3ccccn3)N3CCC(F)CC3)ns2)n1 (racemic)	< 13 nM	83 nM	< 4 nM	0.45 µM·h		
Cc1cn2c(-c3cn[nH]c3)cnc2c(Nc2cc(C(c3ccccn3)N3CCCC3)ns2)n1 (racemic)	< 13 nM	< 16 nM	< 4 nM	0.02 µM·h		
Cc1cn2c(-c3cn[nH]c3)cnc2c(Nc2cc(C(NC3CCCC3)c3ccccn3)ns2)n1 (racemic)	< 13 nM	< 16 nM	< 4 nM	0.67 µM·h		
Cc1cn2c(-c3cn[nH]c3)cnc2c(Nc2cc(C(c3ccccn3)N3CCCCC3)ns2)n1 (racemic)	< 13 nM	< 16 nM	< 4 nM	0.21 µM·h		
Cc1cn2c(-c3cn[nH]c3)cnc2c(Nc2cc(C(NC(C)(C)C)c3ccccn3)ns2)n1 (single isomer, unassigned; (-))	≤ 13 nM	50 nM	≤ 4 nM			39 µM·h

Now from value to molecule, other results behind:

IC50 [1]	EC50 [2]	IC50 [3]	AUC(0-t) at 6 h [4]	Papp A→B [5]	Structure (SMILES)	AUC(0-t) at 24 h [6]
< 13 nM	100 nM	< 4 nM	7.3 µM·h		Cc1cn2c(-c3cn[nH]c3)cnc2c(Nc2cc(Cc3cccc(F)n3)ns2)n1	
< 13 nM	208 nM	< 4 nM	0.15 µM·h	4.3 ×10⁻⁶ cm/s	Cc1cn2c(-c3cn[nH]c3)cnc2c(Nc2cc(Cc3cnccn3)ns2)n1	
< 13 nM	475 nM	< 4 nM	3.4 µM·h		Cc1ccc(Cc2cc(Nc3nc(C)cn4c(-c5cn[nH]c5)cnc34)sn2)nc1	
< 13 nM	182 nM	< 4 nM	1.4 µM·h		Cc1cn2c(-c3cn[nH]c3)cnc2c(Nc2cc(Cc3ncccc3F)ns2)n1	
< 13 nM	486 nM	< 4 nM	5.5 µM·h		Cc1cn2c(-c3cn[nH]c3)cnc2c(Nc2cc(Cc3ccc(F)cn3)ns2)n1	
< 13 nM	250 nM	< 4 nM	1.6 µM·h		Cc1cn2c(-c3cn[nH]c3)cnc2c(Nc2cc(Cc3ncccc3C)ns2)n1	
< 13 nM	376 nM	< 4 nM	4.6 µM·h		Cc1ccnc(Cc2cc(Nc3nc(C)cn4c(-c5cn[nH]c5)cnc34)sn2)c1	
< 13 nM	356 nM	< 4 nM	5.5 µM·h		COc1cccc(Cc2cc(Nc3nc(C)cn4c(-c5cn[nH]c5)cnc34)sn2)n1	
< 13 nM	559 nM	< 4 nM			Cc1cn2c(-c3cn[nH]c3)cnc2c(Nc2cc(Cc3cccc(CO)n3)ns2)n1	
< 13 nM	88 nM	< 4 nM	7.7 µM·h		Cc1cccc(Cc2cc(Nc3nc(C)cn4c(-c5cn[nH]c5)cnc34)sn2)n1	
